TGI data for 16 compounds are collected here from PubChem BioAssay (NCI).

Among the test systems are 786-0 renal; IGROV1 ovarian; M14 melanoma; MOLT-4 leukemia; RPMI-8226 leukemia; SN12C renal; SK-MEL-2 melanoma; ACHN renal.
Common to all, as to test: NCI tumour cell line growth inhibition, 48 h

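Growth conditions: 96-well plates. Treatment: test compound, 48 hours, 5 concentrations. Analysis: linear interpolation between bracketing concentrations; unreached endpoints set to highest concentration. TGI denotes the concentration required for complete inhibition of growth.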

In the case of `CCOC(=O)CNC(SC)=C(C#N)C#N`, the TGI with 786-0 renal, with IGROV1 ovarian, in the assay with M14 melanoma, in the assay on MOLT-4 leukemia, in the assay on RPMI-8226 leukemia and in the assay on SN12C renal was greater than 100 µM in each case.
Take `COc1cc2c(c3oc(-c4ccc5c(c4)OCO5)c(O)c(=O)c13)CCC(C)(C)O2`: the TGI in the assay with 786-0 renal, with IGROV1 ovarian, with M14 melanoma, in the assay on MOLT-4 leukemia, in the assay on RPMI-8226 leukemia and with SK-MEL-2 melanoma was greater than 100 µM in each case. The same compound registered a TGI in the assay with SN12C renal greater than 100 µM.
As for `C#CCOCn1cnc2ncnc(Cl)c21`, the TGI in the assay with 786-0 renal, in the assay with ACHN renal, in the assay on IGROV1 ovarian, in the assay with M14 melanoma, in the assay with MOLT-4 leukemia and in the assay with RPMI-8226 leukemia was greater than 100 µM each time. Also, the TGI with SK-MEL-2 melanoma and in the assay with SN12C renal was greater than 100 µM in each case.
Take `CCN(CC)C(=O)c1c(N2CCOCC2)cc(N(CC)CC)oc1=O`: the TGI in the assay on 786-0 renal, with ACHN renal, with IGROV1 ovarian, in the assay on M14 melanoma, with MOLT-4 leukemia and in the assay on RPMI-8226 leukemia was greater than 100 µM in each case. Besides, the TGI in the assay with SK-MEL-2 melanoma and in the assay with SN12C renal was greater than 100 µM each time.
Turning to `CC(C)O/C=C1\C(=O)C2(SCCS2)[C@H]2CCCC[C@@H]12`, the TGI in the assay on 786-0 renal was greater than 100 µM; in the assay on ACHN renal, greater than 100 µM; with IGROV1 ovarian, greater than 100 µM; in the assay with M14 melanoma, greater than 100 µM; in the assay on MOLT-4 leukemia it was 46.4 µM; in the assay on RPMI-8226 leukemia, 81 µM. The TGI with SK-MEL-2 melanoma and with SN12C renal was greater than 100 µM each time.
As to `CC1=C(C(=O)Nc2ccccc2C)C(c2ccc(N(C)C)cc2)C(C(=O)Nc2ccccc2C)=C(C)N1`, the TGI with 786-0 renal, with ACHN renal, in the assay on IGROV1 ovarian, with MOLT-4 leukemia, in the assay on RPMI-8226 leukemia and in the assay with SK-MEL-2 melanoma was greater than 100 µM each time. Besides, the TGI in the assay with SN12C renal was greater than 100 µM.
For the compound `COc1ccc(-c2cc(-c3ccccc3)c(C#N)c(=O)[nH]2)cc1`, the TGI with 786-0 renal, in the assay with ACHN renal, with IGROV1 ovarian, in the assay on M14 melanoma, in the assay with MOLT-4 leukemia and with RPMI-8226 leukemia was greater than 100 µM each time. This compound also registered a TGI in the assay with SN12C renal greater than 100 µM.
For the compound `COc1ccc2oc(-c3ccncc3)cc(=O)c2c1`, the TGI with 786-0 renal, with ACHN renal, in the assay with IGROV1 ovarian, in the assay with M14 melanoma, with MOLT-4 leukemia and in the assay with RPMI-8226 leukemia was greater than 100 µM throughout. Besides, the TGI with SK-MEL-2 melanoma and in the assay with SN12C renal was greater than 100 µM throughout.
For `CCCNC(=O)c1cc2ccccc2cc1C(=O)OC`, the TGI in the assay on 786-0 renal, with ACHN renal, in the assay with IGROV1 ovarian, in the assay with M14 melanoma, in the assay on MOLT-4 leukemia and in the assay with RPMI-8226 leukemia was greater than 100 µM throughout. Also, the TGI with SK-MEL-2 melanoma and in the assay with SN12C renal was greater than 100 µM in each case.
Take `NNC(=O)CC(=O)Nc1ccccc1F`: the TGI with 786-0 renal, in the assay with ACHN renal, in the assay on IGROV1 ovarian, with M14 melanoma, in the assay with MOLT-4 leukemia and in the assay with RPMI-8226 leukemia was greater than 100 µM throughout. In addition, the TGI in the assay on SN12C renal is greater than 100 µM.
As for `COc1cc(C)c(C(=O)/C=C/c2cc(OC)c(O)c(OC)c2)cc1O`, the TGI is 39.7 µM with 786-0 renal; greater than 100 µM with ACHN renal; 85 µM with IGROV1 ovarian; 29.9 µM in the assay with M14 melanoma; greater than 100 µM in the assay with MOLT-4 leukemia; greater than 100 µM in the assay on RPMI-8226 leukemia. The same compound came in with a TGI with SK-MEL-2 melanoma of 38.8 µM.
For the compound `CC1SC2=NC3=C(c4ccccc4C3=O)C(c3ccc(Br)cc3)N2C1=O` (stereo not given), the TGI in the assay with 786-0 renal, with ACHN renal, in the assay on IGROV1 ovarian, in the assay on M14 melanoma, in the assay on MOLT-4 leukemia and with RPMI-8226 leukemia was greater than 100 µM in each case. Further, the TGI in the assay with SK-MEL-2 melanoma and in the assay with SN12C renal was greater than 100 µM throughout.
Take `O=C1Cc2ccccc2N1/N=C\c1ccc(O)cc1`: the TGI with 786-0 renal, with ACHN renal, in the assay on IGROV1 ovarian, in the assay with M14 melanoma, in the assay with MOLT-4 leukemia and in the assay with RPMI-8226 leukemia was greater than 100 µM in each case. Besides, the TGI with SK-MEL-2 melanoma and with SN12C renal was greater than 100 µM in each case.
On to `CCOC(=O)c1c(-c2[nH]c(C(=O)OCc3ccccc3)c(C)c2C(=O)OCC)[nH]c(C(=O)OCc2ccccc2)c1C`, for which the TGI with 786-0 renal, with ACHN renal, with IGROV1 ovarian, in the assay with M14 melanoma, in the assay with MOLT-4 leukemia and in the assay on RPMI-8226 leukemia was greater than 100 µM in each case. For the same compound, the TGI in the assay with SK-MEL-2 melanoma and in the assay on SN12C renal was greater than 100 µM each time.
Turning to `O=C1c2c(c3c4ccccc4n4c3c3c2c2ccccc2n3C/C=C\C4)C(=O)N1Cc1ccccc1`, the TGI in the assay with 786-0 renal, in the assay with ACHN renal, in the assay with IGROV1 ovarian, with M14 melanoma, with MOLT-4 leukemia and in the assay on RPMI-8226 leukemia was greater than 100 µM each time. The TGI in the assay with SN12C renal is greater than 100 µM.
With `CC(=O)Nc1ccc(-c2nnc(SCC(=O)Nc3ccccc3[N+](=O)[O-])o2)cc1`, the TGI with 786-0 renal, in the assay with ACHN renal, with IGROV1 ovarian, in the assay on M14 melanoma, in the assay with MOLT-4 leukemia and in the assay on RPMI-8226 leukemia was greater than 100 µM throughout. For the same compound, the TGI in the assay with SK-MEL-2 melanoma and in the assay on SN12C renal was greater than 100 µM each time.
